What was measured:
[1] = Stability in rabbit plasma assessed as parent compound remaining at 100 uM after 10 hrs by HPLC analysis; format: ADME, cell-free, Oryctolagus cuniculus; conditions: read-out: Stability
[2] = Cytotoxicity against rat H9c2 cells assessed as decrease in cell viability after 72 hrs by neutral red staining based assay; format: toxicity
H9c2 [3] = experiment: Protection against t-BHP-induced oxidative injury in rat H9c2 cells assessed as increase in cell viability incubated for 10 mins followed by stimulation with t-BHP for 24 hrs by neutral red staining based assay; format: functional
[4] = Drug uptake in human SK-N-MC cells by beta scintillation counting analysis; format: ADME, cell-based
[5] = Cytotoxicity against human MCF7 cells assessed as decrease in cell viability after 72 hrs by neutral red staining based assay; format: functional; conditions: MCF7, 72 h
[6] = Cytotoxicity against human HL60 cells assessed as decrease in cell viability after 72 hrs by MTT assay; format: functional, cell-based; conditions: HL-60, 72 h
MCF7 [7] = experiment: Induction of transferrin labeled 59Fe mobilization in human MCF7 cells assessed as cellular 59Fe released at 25 uM after 3 hrs by gamma scintillation counting analysis (reference value: 11%); format: functional
MCF7 [8] = experiment: Inhibition of 59Fe uptake in human MCF7 cells labeled with 59Fe transferrin at 25 uM after 3 hrs relative to control; format: functional; conditions: MCF7, 3 h
H9c2 [9] = experiment: Selectivity index, ratio of IC50 for rat H9c2 cells to IC50 for human HL60 cells; format: functional
[10] = Iron chelating activity assessed as Fe2+-compound complex formation at 5 uM measured for 360 secs by calcein based fluorescence assay relative to salicylaldehyde isonicotinoyl hydrazone; format: physicochemical; conditions: 0.1 h
H9c2 [11] = experiment: Selectivity index, ratio of IC50 for rat H9c2 cells to IC50 for human MCF7 cells; format: functional
[12] = Antiproliferative activity against HUVEC after 22 to 72 hrs by MTT assay; format: cell-based; conditions: Homo sapiens
[13] = Antiproliferative activity against human SK-N-MC cells after 22 to 72 hrs by MTT assay; format: functional, cell-based
SK-N-MC = experiment: Selectivity index, ratio of IC50 for HUVEC to IC50 for human SK-N-MC cells
[14] = Antiproliferative activity against rat L8 cells after 22 to 72 hrs by MTT assay; format: cell-based
[15] = Selectivity index, ratio of IC50 for rat L8 cells to IC50 for human SK-N-MC cells; format: functional
H9c2 [16] = experiment: Protection against H202-induced oxidative injury in rat H9c2 cells assessed as increase in cell viability after 24 hrs by neutral red staining based assay; format: functional; conditions: H9c2, 24 h
[17] = Iron chelating activity assessed as Fe3+-compound complex-induced antioxidant activity by measuring ascorbate oxidation level at iron binding equivalent of 3 measured after 10 to 40 mins in presence of 500 uM of citrate relative to control; format: physicochemical
[18] = Iron chelating activity assessed as Fe3+-compound complex-induced antioxidant activity by measuring decrease in ascorbate oxidation level at iron binding equivalent of 3 measured after 10 to 40 mins in presence of 100 uM of citrate relative to control; format: physicochemical
H9c2 [19] = experiment: Selectivity index, ratio of IC50 for rat H9c2 cells to EC50 for rat H9c2 cells; format: functional
[20] = Iron chelating activity assessed as Fe3+-compound complex-induced antioxidant activity by measuring ascorbate oxidation level at iron binding equivalent of 0.1 measured after 10 to 40 mins in presence of 500 uM of citrate relative to control; format: physicochemical

Structure (SMILES)	remaining at 10 h, 100 µM [1] [%]	Activity [10] [%]	Activity [17] [%]	IC50 at 72 h [2] [µM]	IC50 [5] [µM]	IC50 [6] [µM]	Activity (MCF7 [7])	inhibition at 25 µM (MCF7 [8]) [%]	Ratio IC50 (H9c2 [9])	Ratio IC50 (H9c2 [11])	further results
CN(C)C(=S)NN=[14C](c1ccccn1)c1ccccn1	–	–	–	–	–	–	–	–	–	–	Kd [4]: 2.45 µM
CC/C(=N\NC(=O)c1cccc2ccccc12)c1ccccc1O	76	84 to 109	–	> 200	3.5	3.5	50 - 56%	17 to 61	>57	>57	–
O=C(N/N=C/c1c(O)ccc2ccccc12)c1ccncc1	–	–	–	–	–	–	–	–	–	–	IC50 [12]: 20.1 µM; IC50 [13]: 0.5 µM; Ratio IC50 (SK-N-MC): 40; IC50 [14]: 5.4 µM; Ratio IC50 [15]: 11
C/C(=N\NC(=O)c1ccnnc1)c1ccccc1O	–	97 to 107	10 to 44	22.8	7.6	6.4	54 - 57%	17 to 61	3.6	3	EC50 (H9c2 [16]): 55.3 µM
C/C(=N\NC(=O)c1cccc2ccccc12)c1ccccc1O	95	79	–	> 200	3.8	3.9	54 - 57%	17 to 61	>52	>52	–
C/C(=N\NC(=O)c1cccnc1)c1ccccc1O	–	97 to 107	10 to 44	6.8	8.3	7.5	54 - 57%	17 to 61	0.9	0.8	–
C/C(=N\NC(=O)c1ccc(-c2ccccc2)cc1)c1ccccc1O	90	7	–	> 100	4.6	2.7	41%	17 to 61	>37	>22	–
CC/C(=N\NC(=O)c1ccncc1)c1ccccc1O	41	–	–	–	34.7	–	–	–	–	–	EC50 (H9c2 [3]): 17.8 µM
CC/C(=N\NC(=O)c1ccnnc1)c1ccccc1O	85	84 to 109	10 to 44	> 200	14.9	9.1	50 - 56%	17 to 61	>21	>13	EC50 (H9c2 [16]): 25 µM; Activity [18]: Active; Ratio IC50/EC50 (H9c2 [19]): 8
CC(=O)N(O)CCCCCNC(=O)CCC(=O)N(O)CCCCCNC(=O)CCC(=O)N(O)CCCCCN [DEFEROXAMINE]	–	–	16	–	–	–	–	–	–	–	Activity [20]: 93%
O=C(N/N=C/c1ccccc1O)c1ccncc1 [SALINAZID]	–	–	7	28.9	12.4	5.7	58%	15	5.1	2.3	EC50 (H9c2 [3]): 18.2 µM

Further lines, with some results ahead:

remaining at 10 h, 100 µM [1] [%]	Activity [10] [%]	Activity [17] [%]	Structure (SMILES)	IC50 at 72 h [2] [µM]	IC50 [5] [µM]	IC50 [6] [µM]	Activity (MCF7 [7])	inhibition at 25 µM (MCF7 [8]) [%]	Ratio IC50 (H9c2 [9])	Ratio IC50 (H9c2 [11])	further results
26	–	–	C/C(=N\NC(=O)c1ccncc1)c1ccccc1O	12.6	–	–	–	–	–	–	EC50 (H9c2 [3]): 11.4 µM
–	84 to 109	10 to 44	CC/C(=N\NC(=O)c1cccnc1)c1ccccc1O	7.1	5	4.9	50 - 56%	17 to 61	1.5	1.4	EC50 (H9c2 [16]): 30 µM
–	84 to 109	10 to 44	CC/C(=N\NC(=O)c1cnccn1)c1ccccc1O	> 100	27.3	27	50%	17 to 61	>4	>4	–
–	97 to 107	10 to 44	C/C(=N\NC(=O)c1cnccn1)c1ccccc1O	41.2	22.4	22.3	42%	17 to 61	1.9	1.8	–
41	84 to 109	–	CC/C(=N\NC(=O)c1ccc(-c2ccccc2)cc1)c1ccccc1O	> 100	1.3	1.3	51%	17 to 61	>78	>78	–

Source: ChEMBL document CHEMBL3856192, “Aroylhydrazone iron chelators: Tuning antioxidant and antiproliferative properties by hydrazide modifications” (Eur J Med Chem, 2016)
